Source: patent US10266565B2, “Peptide mimetic ligands of polo-like kinase 1 polo box domain and methods of use” (The United States of America, as represented by the …, priority 2011, dated 2019)
“Also recorded” adds a separate entry of the source. Blank lines part the entries; values can stand above or below the molecule they belong to. *1 amine or outer side, *2 acyl side, *3 side chain or, on linkers, in order; H or OH if unused. Where a SMILES comes first, the peptide text is derived from it. Where no end group is shown, it is not given here. [ ]: non-standard residue; d: D form. Abu(3R-Me,4-PO3H2) = C[C@@H](CP(=O)(O)O)[C@H](N)C(=O)O; X1 = C[C@H]([C@H](N[*:1])C(=O)[*:2])C(F)(F)P(=O)(O)O; pT = C[C@@H](OP(=O)(O)O)[C@H](N)C(=O)O

Legend:
[1] = target: T1, Plk3 (Homo sapiens, UniProt Q9H4B4, K91R); assay: Peptide pull-down assay with bead-immobilized peptides, Plk3; format: binding
T1 construct: expressed in transfected cells; construct a gift of Wei Dai

[2] = tested on: HeLa cells; assay: Direct treatment of cultured HeLa cells (mitotic arrest, apoptotic cell death, Plk1 localization); format: cell-based; settings: 200 μM
[3] = target: T2, Plk2 (Mus musculus, UniProt P53351, K108M); assay: Peptide pull-down assay with bead-immobilized peptides, Plk2; format: binding
T2 construct: expressed in transfected cells
Procedure: After incubating the cell lysates prepared in TBSN buffer {20 mM Tris-Cl (pH8.0), 150 mM NaCl, 0.5% Np-40, 5 mM EGTA, 1.5 mM EDTA, 20 mM p-nitrophenylphosphate and protease inhibitor cocktail (Roche, Nutley, N.J.)} with the bead-immobilized ligands for 2 h at 4° C., the ligand-associating proteins were precipitated, washed, boiled in sodium dodecyl sulfate (SDS) sample buffer, separated by 8% SDS-polyacrylamide gel electrophoresis (PAGE), and then subjected to immunoblotting analysis with anti-Flag antibody and the enhanced chemilunimescence (ECL) detection system (Pierce). The same membrane was also stained with Coomassies (CBB). Signal intensities were quantified using Image J program.
To investigate the binding specificity of p-T78 peptides to various Plks, Flag-Plk1 (K82M), Flag-Plk2(K108M)3 or Flag-Plk3(K52R) (a gift of Wei Dai, New York University School of Medicine, NY) construct was first transfected into HeLa cells. Cellular lysates were prepared as above, mixed, and then incubated in TBSN buffer with the immobilized peptides indicated.

[4] = tested on: HeLa cells; settings: Yun et al. 2009; cited from earlier work
[5] = Toxicity in cell-based experiments
[6] = target: Flag-Plk2 (K108M) (UniProt Q9NYY3); assay: pull-down with bead-immobilized peptide, mixed Flag-Plk1/2/3 lysates (HeLa)
[7] = target: T3, recombinant Plk2 PBD (residues 373 to 685) (human) (UniProt Q9NYY3); assay: ITC; saturable binding not observed
T3 sequence (looked up): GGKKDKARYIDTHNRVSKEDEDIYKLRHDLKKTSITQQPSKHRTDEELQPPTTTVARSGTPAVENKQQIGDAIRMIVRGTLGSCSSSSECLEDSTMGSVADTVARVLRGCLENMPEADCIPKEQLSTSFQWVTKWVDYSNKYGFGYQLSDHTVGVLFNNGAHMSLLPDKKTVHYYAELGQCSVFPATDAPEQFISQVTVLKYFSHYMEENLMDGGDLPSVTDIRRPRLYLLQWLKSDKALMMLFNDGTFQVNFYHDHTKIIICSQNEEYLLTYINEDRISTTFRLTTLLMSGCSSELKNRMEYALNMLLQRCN

[8] = target: Flag-Plk1 (K82M) (UniProt P53350 1-603); assay: pull-down with bead-immobilized peptide, mitotic HeLa lysate
[9] = target: T4, HA-EGFP-Plk1 (UniProt P53350 1-603); assay: ELISA-based PBD-binding inhibition assay: peptide as competitor of the immobilized biotinylated 9-mer p-T78 peptide for HA-EGFP-Plk1 in mitotic 293A cell lysate; bound Plk1 detected with anti-HA, OD 450 nm
T4 construct: In lysates of mitotic 293A cells infected with adenovirus expressing HA-EGFP-Plk1

[10] = target: T4, HA-EGFP-Plk1; assay: competition ELISA, HA-EGFP-Plk1 lysate on immobilized biotin p-T78 9-mer
[11] = target: T3, recombinant Plk2 PBD (residues 373 to 685) (human); assay: ITC
[12] = target: Flag-Plk2 (K108M) (UniProt Q9NYY3); assay: assay not stated at this place (peptide pull-down by paragraph 548)

T4 sequence (P53350 whole entry): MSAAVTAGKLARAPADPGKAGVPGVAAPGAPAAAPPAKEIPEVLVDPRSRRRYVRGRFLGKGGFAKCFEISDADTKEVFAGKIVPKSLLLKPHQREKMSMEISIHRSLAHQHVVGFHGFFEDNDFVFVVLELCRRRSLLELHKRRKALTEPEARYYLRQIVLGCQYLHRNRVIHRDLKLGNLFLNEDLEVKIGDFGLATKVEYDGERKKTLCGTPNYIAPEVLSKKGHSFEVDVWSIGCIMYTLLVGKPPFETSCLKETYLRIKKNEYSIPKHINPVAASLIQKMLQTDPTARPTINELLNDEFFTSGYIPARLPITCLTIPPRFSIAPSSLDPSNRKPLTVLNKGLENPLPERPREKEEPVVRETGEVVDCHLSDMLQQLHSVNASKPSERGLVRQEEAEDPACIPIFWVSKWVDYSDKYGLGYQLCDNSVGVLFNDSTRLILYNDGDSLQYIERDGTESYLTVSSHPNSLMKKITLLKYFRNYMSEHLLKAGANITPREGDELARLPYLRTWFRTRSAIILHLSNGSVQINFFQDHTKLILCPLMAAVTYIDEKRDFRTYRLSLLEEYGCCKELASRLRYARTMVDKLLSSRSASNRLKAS
Chain of Flag-Plk1 (K82M) (P53350 whole entry K82M): as the sequence (P53350 whole entry) above, with K82M counted along it
T2 sequence (P53351 whole entry K108M): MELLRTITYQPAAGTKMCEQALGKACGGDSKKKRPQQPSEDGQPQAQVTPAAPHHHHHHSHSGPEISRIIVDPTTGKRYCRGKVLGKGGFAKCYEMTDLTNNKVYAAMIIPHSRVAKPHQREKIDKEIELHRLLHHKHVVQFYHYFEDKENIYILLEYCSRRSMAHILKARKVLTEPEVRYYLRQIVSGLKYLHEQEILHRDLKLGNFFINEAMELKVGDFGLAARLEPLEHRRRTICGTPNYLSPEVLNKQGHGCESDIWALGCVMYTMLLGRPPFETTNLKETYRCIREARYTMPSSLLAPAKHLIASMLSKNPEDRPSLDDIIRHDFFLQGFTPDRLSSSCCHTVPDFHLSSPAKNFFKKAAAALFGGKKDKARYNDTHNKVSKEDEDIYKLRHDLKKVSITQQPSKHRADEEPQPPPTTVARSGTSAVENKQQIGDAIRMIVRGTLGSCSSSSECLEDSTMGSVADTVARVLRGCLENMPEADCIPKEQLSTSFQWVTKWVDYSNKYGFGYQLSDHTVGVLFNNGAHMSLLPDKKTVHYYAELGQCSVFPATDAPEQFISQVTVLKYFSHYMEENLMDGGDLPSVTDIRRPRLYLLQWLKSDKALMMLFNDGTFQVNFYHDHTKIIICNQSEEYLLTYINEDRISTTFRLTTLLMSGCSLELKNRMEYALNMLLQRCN
T1 sequence (Q9H4B4 40-646 K91R limits assumed): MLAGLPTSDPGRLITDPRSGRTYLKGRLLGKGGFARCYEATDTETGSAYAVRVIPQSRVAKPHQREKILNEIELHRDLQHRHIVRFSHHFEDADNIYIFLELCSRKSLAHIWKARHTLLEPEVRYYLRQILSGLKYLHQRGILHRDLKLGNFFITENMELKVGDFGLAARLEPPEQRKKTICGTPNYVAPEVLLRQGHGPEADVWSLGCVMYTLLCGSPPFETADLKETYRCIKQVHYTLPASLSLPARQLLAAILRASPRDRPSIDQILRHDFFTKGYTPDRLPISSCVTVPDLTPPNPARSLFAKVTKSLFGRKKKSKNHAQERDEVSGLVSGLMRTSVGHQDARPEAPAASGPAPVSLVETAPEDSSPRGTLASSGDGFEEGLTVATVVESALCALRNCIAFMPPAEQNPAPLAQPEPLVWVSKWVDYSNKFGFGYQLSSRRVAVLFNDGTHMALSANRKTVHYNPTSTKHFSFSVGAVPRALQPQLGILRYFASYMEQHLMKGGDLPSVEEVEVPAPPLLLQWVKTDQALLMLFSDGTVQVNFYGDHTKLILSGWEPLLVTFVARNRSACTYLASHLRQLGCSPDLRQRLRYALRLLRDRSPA

Molecule: COCCOCCOCCOCCOCCOCCOCCOCCC(=O)N1CCC[C@H]1C(=O)N[C@@H](CC(C)C)C(=O)N[C@@H](Cc1cncn1CCCCCCCCc1ccccc1)C(=O)N[C@@H](CO)C(=O)N[C@H](C(N)=O)[C@@H](C)CP(=O)(O)O [PEG-4j*]
Plk3 binding / precipitation in pull-down, in words [1]: failed to significantly interact | Plk1 delocalization and misaligned chromosomes [2]: drastic Plk1 delocalization from centrosomes and kinetochores, and severe misaligned chromosomes | mitotic arrest / apoptotic cell death / cellular response [2]: effectively induced mitotic arrest and apoptotic cell death | Plk2 binding / precipitation in pull-down, in words [3]: failed to significantly interact

Molecule: CC(=O)N1CCC[C@H]1C(=O)N[C@@H](CC(C)C)C(=O)N[C@@H](Cc1c[nH]cn1)C(=O)N[C@@H](CO)C(=O)N[C@H](C(N)=O)[C@@H](C)OP(=O)(O)O [compound 1, PLHSpT]
Plk1 localization and apoptotic cell death after microinjection [4]: interferes with proper subcellular localization of Plk1 and induces apoptotic cell death | mitotic arrest / apoptotic cell death / cellular response [2]: failed to elicit a detectable cellular response; also recorded: failed to generate a detectable level of cellular effect

Molecule: CC(=O)N1CCC[C@H]1C(=O)N[C@@H](CC(C)C)C(=O)N[C@@H](Cc1c[nH]cn1)C(=O)N[C@@H](CO)C(=O)N[C@H](C(=O)N[C@@H](C)C(N)=O)[C@@H](C)C(F)(F)P(=O)(O)O [compound 25, PLHS-F2Pmab-A] (Ac-PLHS[X1]A-NH2)
toxicity [5]: significant toxicity

efficiency of precipitation relative to Plk1 [6]: 27% | initial heats of interaction [7]: -1.68 kcal/mol
Molecule: MQS[pT]PL [MQSpTPL]

binding result [8]: no binding | binding result [9]: no binding (tested: 300 µM) | fold higher molar concentration without inhibition [10]: > 1000 fold
Molecule: PLHA[Abu(3R-Me,4-PO3H2)] (also called 24; Pmab(S77A)) [PLHA-Pmab]

initial heats of interaction [11]: -1.1 kcal/mol | fold increase of Plk2 binding [12]: 24 fold
Molecule: PLQS[pT] [PLQSpT]
